Laboratory results published in article PMC10292217, “Gene-nutrient interactions that impact magnesium homeostasis increase risk for neural tube defects in mice exposed to dolutegravir” (Frontiers in Cell and Developmental Biology, 2023).
Where two headings read alike, the source gives them in different places. Marks after values point to notes of the source that are not given here.

Columns and labels:
[1] = tested on: SWV mice; test: DTG-NTD susceptibility, embryo phenotyping on GD 9.5, SWV dams; format: in vivo, mouse
Excerpt: Breeding colonies and experimental mice were housed in Thoren micro-isolator cages with autoclaved corncob bedding and maintained on a 12-h light-dark cycle in climate-controlled AAALAC-accredited animal facilities at Creighton University. Mice were given ad libitum access to autoclaved water and pelleted irradiated rodent chow. For timed matings, nulliparous female mice were placed with a male overnight (1 male:2-3 females). The presence of a vaginal plug the next morning was considered GD 0.5. Plugged females were weighed, placed into a separate cage, and randomly assigned to a treatment group. All animal procedures were performed in accordance with the Public Health Service (PHS) policy on Humane Care and Use of Laboratory Animals and approved by the Creighton University Institutional Animal Care and Use Committee (IACUC).
Dolutegravir (CAS 1051375-16-6, GSK1349572) was purchased from MedKoo Biosciences (Morrisville, NC). Pregnant mice were dosed with vehicle (dimethylsulfoxide: Solutol®: 50 mM N-methylglucamine in 3% mannitol [1:1:8, v:w:v]) ([Moss et al., 2015]) or DTG (500 mg/kg or 750 mg/kg) by daily oral gavage beginning on GD 0.5 and continuing until the day of sacrifice (GD 9.5). All treatments were administered in a volume of 0.1 mL/10 g bodyweight (bwt).
The SWV and LM/Bc breeding colonies have been maintained on Envigo Rodent Chow #8904 (a soy protein-based irradiated diet) for >20 years. C3H/HeJ and C57BL/6J mice (6–10 weeks old) were immediately placed on Envigo #8904 upon arrival at Creighton University and were maintained on this diet for a minimum of 1 month prior to analysis of basal plasma and urine cations. The National Research Council (NRC) estimate for the minimum Mg^2+ requirement in adult mice is […] of diet (0.05%). Magnesium in standard rodent diets ranges between […]; the Envigo #8904 soy diet contains .3% Mg^2+ by weight ([…] the NRC requirement) and was therefore considered a ‘high’ Mg^2+ diet. Sources of Mg^2+ in the soy diet include magnesium oxide (∼20%) and Mg^2+ found naturally in grain ingredients (∼80%); it was therefore not possible to remove Mg^2+ to create a soy-based version that was Mg^2+ deficient. To test the hypothesis that low maternal plasma Mg^2+ prior to conception would increase susceptibility to DTG-induced NTDs, it was necessary to switch to casein-based purified ingredient diets with defined levels of Mg^2+ added back. The following casein-based purified ingredient diets were selected as experimental diets: TD.120,574 high Mg^2+ diet (.3% Mg^2+ oxide added to match the .3% high Mg^2+ soy-based diet); TD.98341 control Mg^2+ diet with 0.05% Mg oxide added back to match the NRC requirement; and TD.93106 Mg^2+-deficient diet (<.003%, no Mg^2+ added back). The purified casein diets met or exceeded the NRC requirements for all other minerals and vitamins, including folic acid (Supplementary Table S1: Diet Comparison). Thus, the 4 experimental diets were as follows: 1) high Mg^2+ (.3%) soy diet; 2) high Mg^2+ ([…]) casein diet; 3) control Mg^2+ (.05%) casein diet; and 4) deficient Mg^2+ (<.003%) casein diet. […] Our initial DTG teratology studies were performed in mice on the high Mg^2+ soy diet. However, our objective in the second set of experiments was to reduce pre-conception plasma Mg^2+ levels prior to DTG exposure. To accomplish this objective, weaned female mice were placed on either the high Mg^2+ casein diet or one of the 2 casein-based experimental diets with reduced Mg^2+ (control or deficient) for a minimum of 2 weeks. After this minimum period of acclimation to the experimental casein-based diets, blood and urine samples were collected for Inductively Coupled Plasma Mass Spectrometry (ICP-MS) determination of Mg^2+ (and other cations).
Pregnant dams were anesthetized with isoflurane and sacrificed by cervical dislocation on GD 9.5. […]

[2] = cited from earlier work
[3] = tested on: hESC morphogenesis model; design: method as in Kirkwood-Johnson et al., 2021; details: ref Kirkwood-Johnson et al., 2021; cited from earlier work
[4] = Mg2+-deficient (<0.003%) casein diet, DTG750
[5] = high Mg2+ (0.3%) soy diet, DTG 750 mg/kg/d oral GD 0.5-GD 9.5, average % (SD)
[6] = high Mg2+ (0.3%) soy diet, DTG 750 mg/kg/d oral GD 0.5-GD 9.5, mean (SD)
[7] = high Mg2+ (0.3%) soy diet, DTG 750 mg/kg/d oral GD 0.5-GD 9.5, mean (SD) per litter
[8] = human, non-pregnant, 50 mg single dose, ref Min et al., 2010
[9] = human, non-pregnant, 100 mg single dose, ref Min et al., 2010
[10] = human, non-pregnant, 100 mg × 7d, ref Wang et al., 2019
[11] = pregnant women, 2nd trimester, 50 mg/d, ref Mulligan et al., 2018

## C[C@@H]1CCO[C@H]2Cn3cc(C(=O)NCc4ccc(F)cc4F)c(=O)c(O)c3C(=O)N12 [DTG, Dolutegravir]
[1]; [4]
  NTD-affected litters: 75%
  NTD-affected litters / litters examined: 6/8
  NTDs per affected litter: 1-4
  total NTDs: 11
[1]; high Mg2+ (0.3%) soy diet, DTG 750 mg/kg/d oral GD 0.5-GD 9.5
  Affected litters %: 7.7%
[1]; [5]
  Dev delay/implants, index value: 2.0% (3.19)
  NTDs/embryos, index value: 1.8% (6.40)
  NTDs/implants, index value: 1.6% (5.94)
  Resorptions/implants, index value: 5.0% (7.62)
[1]; [6]
  Implants per litter: 13.15 (2.12)^**
  Resorptions per litter: 0.62 (0.87)
[1]; [7]
  Dev. delayed: 0.31 (0.48)
  NTDs: 0.23 (0.83)
  Total viable embryos: 12.54 (2.37)^**
[1]; high Mg2+ soy diet, DTG750
  NTD-affected litters / litters examined: 1/13
  total pups with exencephaly: 3
[2]; [8]
  AUC 0-24: 70.8 (50 mg single dose) ^1 µg*h/mL
  Cmax: 4.6 (50 mg single dose) ^1 µg/mL
  Tmax: 1.25 h (50 mg single dose) ^1
  t½: 13–14 h (50 mg single dose) ^1
[2]; [9]
  AUC 0-24: 131 (100 mg single dose) ^1 µg*h/mL
  Cmax: 8.1 (100 mg single dose) ^1 µg/mL
[2]; [10]
  AUC 0-24: 92.3 (100 mg × 7d) ^2 µg*h/mL
  Cmax: 6.7 (100 mg × 7d) ^2 µg/mL
[2]; [11]
  AUC 0-24: 47.6 (33.4–63.7) (2nd trimester, 50 mg/d) ^3 µg*h/mL
  Cmax: 3.62 (2.57–4.63) µg/mL
  Tmax: 2 h (2nd trimester, 50 mg/d) ^3
  t½: 11 h (2nd trimester, 50 mg/d) ^3
[3]
  effect on 3D morphogenesis: altered growth and expression of genes involved in body patterning
